# Key:
# [1] = tested on: Klebsiella pneumoniae (VIM); assay: MIC of carbapenems for isolates; assay type: cell-based; details: 1 isolate
# [2] = tested on: Citrobacter freundii (non-CP-CRE); assay: MIC of carbapenems for isolates; assay type: cell-based; details: 1 isolate
# [3] = tested on: Klebsiella pneumoniae (NDM); assay: MIC of carbapenems for isolates; assay type: cell-based; details: 1 isolate
# Klebsiella oxytoca (KPC) = assay: MIC of carbapenems for isolates; assay type: cell-based; details: 1 isolate
# [4] = tested on: Citrobacter freundii (OXA); assay: MIC of carbapenems for isolates; assay type: cell-based; details: 1 isolate
# [5] = tested on: Enterobacter cloacae (VIM); assay: MIC of carbapenems for isolates; assay type: cell-based; details: 1 isolate
# Escherichia coli (NDM) = assay: MIC of carbapenems for isolates; assay type: cell-based; details: 4 isolates
# [6] = tested on: Klebsiella pneumoniae (NDM/OXA); assay: MIC of carbapenems for isolates; assay type: cell-based; details: NDM/OXA co-producing, 1 isolate
# [7] = tested on: Enterobacter cloacae (non-CP-CRE); assay: MIC of carbapenems for isolates; assay type: cell-based; details: 10 isolates
# [8] = tested on: Klebsiella pneumoniae (non-producer); assay: MIC of carbapenems for isolates; assay type: cell-based; details: 21 isolates
# [9] = tested on: Citrobacter freundii (KPC); assay: MIC of carbapenems for isolates; assay type: cell-based; details: 1 isolate
# [10] = tested on: Morganella morganii (NDM); assay: MIC of carbapenems for isolates; assay type: cell-based; details: 1 isolate
# [11] = tested on: Enterobacter cloacae (NDM); assay: MIC of carbapenems for isolates; assay type: cell-based; details: 2 isolates
# [12] = tested on: Citrobacter freundii (NDM); assay: MIC of carbapenems for isolates; assay type: cell-based; details: 1 isolate
# [13] = tested on: Klebsiella pneumoniae (GES); assay: MIC of carbapenems for isolates; assay type: cell-based; details: 1 isolate
# [14] = tested on: Escherichia coli (non-producer); assay: MIC of carbapenems for isolates; assay type: cell-based; details: 32 isolates
# Klebsiella oxytoca (VIM) = assay: MIC of carbapenems for isolates; assay type: cell-based; details: 1 isolate
# [15] = tested on: Klebsiella aerogenes (KPC); assay: MIC of carbapenems for isolates; assay type: cell-based; details: 1 isolate
# Escherichia coli (KPC) = assay: MIC of carbapenems for isolates; assay type: cell-based; details: 3 isolates
# Escherichia coli (IMP) = assay: MIC of carbapenems for isolates; assay type: cell-based; details: 1 isolate
# GES [16] = assay: Fluorogenic assay (OMCL01203 probe); assay type: biochemical; set-up: key: Pos, positive; Neg, negative; details: Escherichia coli, 2 isolates
# Procedure: (§1) Briefly, 10 μL of a sample was lysed with a Tris-HCl buffer (B-PER, Thermo Scientific Pierce) and then vortexed for 1 minute. After culturing for 30 minutes at room temperature and centrifuging for 5 minutes (10,000 g), 30 μL of the supernatant was reacted with 100 μL of PBS and 13 μL of the fluorescent probe (1 mM). Then, fluorescence was measured for 50 minutes with 5-minute intervals using a fluorescence plate reader (Infinite F200pro, Tecan Group Ltd.).
# (§2) In addition, the detection efficiency of the fluorescence detection method using the OMCL01203 probe was compared for carbapenemase-producing carbapenem-resistant bacteria (CP-CRE) and non-carbapenemase-producing carbapenem-resistant bacteria (non-CP-CRE) with mCIM, CarbaNP and CIT methods.
# VIM [17] = assay: Fluorogenic assay (OMCL01203 probe); assay type: biochemical; set-up: key: Pos, positive; Neg, negative
# Procedure: as §1, §2
# KPC/OXA [18] = assay: Fluorogenic assay (OMCL01203 probe); assay type: biochemical; set-up: key: Pos, positive; Neg, negative; details: KPC/OXA co-producing; Klebsiella pneumoniae; 2 isolates
# Procedure: as §1, §2
# NDM [19] = assay: Fluorogenic assay (OMCL01203 probe); assay type: biochemical; set-up: key: Pos, positive; Neg, negative
# Procedure: as §1, §2
# non-CP-CRE = assay: Fluorogenic assay (OMCL01203 probe); assay type: biochemical; set-up: key: Pos, positive; Neg, negative
# Procedure: as §1, §2
# CTX-M (ESBL-producer) = assay: Fluorogenic assay (OMCL01203 probe); assay type: biochemical; set-up: key: Pos, positive; Neg, negative
# Procedure: as §1, §2
# OXA [20] = assay: Fluorogenic assay (OMCL01203 probe); assay type: biochemical; set-up: key: Pos, positive; Neg, negative
# Procedure: as §1, §2
# NDM/OXA [21] = assay: Fluorogenic assay (OMCL01203 probe); assay type: biochemical; set-up: key: Pos, positive; Neg, negative; details: NDM/OXA co-producing; Klebsiella pneumoniae; 1 isolate
# Procedure: as §1, §2
# IMP [22] = assay: Fluorogenic assay (OMCL01203 probe); assay type: biochemical; set-up: key: Pos, positive; Neg, negative; details: Escherichia coli, 1 isolate
# Procedure: as §1, §2
# KPC [23] = assay: Fluorogenic assay (OMCL01203 probe); assay type: biochemical; set-up: key: Pos, positive; Neg, negative
# Procedure: as §1, §2
# non-producer = assay: Fluorogenic assay (OMCL01203 probe); assay type: biochemical; set-up: key: Pos, positive; Neg, negative
# Procedure: as §1, §2
# GES [24] = assay: Fluorogenic assay (OMCL01203 probe); assay type: biochemical; details: Klebsiella pneumoniae, 1 isolate
# Procedure: as §1, §2
# OXA [25] = assay: Fluorogenic assay (OMCL01203 probe); assay type: biochemical; details: Escherichia coli, 3 isolates, number of isolates in brackets
# Procedure: as §1, §2
# [26] = tested on: non-CPE (negative bacteria); assay: Fluorogenic assay (OMCL01203 probe), all non-CPE of Table 2; assay type: biochemical
# Procedure: as §1, §2
# GES [27] = assay: Fluorescent probe detection in lysed clinical isolates; assay type: biochemical, Enterobacteriaceae; details: Ambler class A, 2 isolates
# Procedure: (§3) The detection efficiency of carbapenemase-producing carbapenem-resistant bacteria of a control probe OMCL01201 (CPC-1 described in Chinese Patent Publication No. CN106279178A) and the OMCL01203 probe of the present disclosure was evaluated at Gangnam St. Mary's Hospital for the bacteria described in Table 1.
# as §1
# VIM [28] = assay: as above; assay type: biochemical, Enterobacteriaceae; details: Ambler class B, 7 isolates
# Procedure: as §3, §1
# KPC/OXA [29] = assay: as above; assay type: biochemical, Enterobacteriaceae; details: KPC/OXA co-producing; 2 isolates
# Procedure: as §3, §1
# NDM [30] = assay: as above; assay type: biochemical, Enterobacteriaceae; details: Ambler class B, 9 isolates
# Procedure: as §3, §1
# OXA [31] = assay: as above; assay type: biochemical, Enterobacteriaceae; details: Ambler class D, 6 isolates
# Procedure: as §3, §1
# NDM/OXA [32] = assay: as above; assay type: biochemical, Enterobacteriaceae; details: NDM/OXA co-producing; 1 isolate
# Procedure: as §3, §1
# IMP [33] = assay: as above; assay type: biochemical, Enterobacteriaceae; details: Ambler class B, 1 isolate
# Procedure: as §3, §1
# KPC [34] = assay: as above; assay type: biochemical, Enterobacteriaceae; details: Ambler class A, 33 isolates
# Procedure: as §3, §1
# Non-CP CRE = assay: as above; assay type: biochemical
# Procedure: as §3, §1
# [35] = tested on: CPE (carbapenemase-producing Enterobacteriaceae); assay: as above; assay type: biochemical; details: CPE total; 61 isolates
# Procedure: as §3, §1
# [36] = tested on: Enterobacter amnigenus (non-CP-CRE); assay: MIC of carbapenems for isolates; assay type: cell-based; details: Lelliottia amnigena, 4 isolates
# [37] = tested on: Klebsiella aerogenes (non-CP-CRE); assay: MIC of carbapenems for isolates; assay type: cell-based; details: 3 isolates
# [38] = tested on: Klebsiella pneumoniae (ESBL-producer, CTX-M); assay: MIC of carbapenems for isolates; assay type: cell-based; details: 24 isolates
# Escherichia coli (OXA) = assay: MIC of carbapenems for isolates; assay type: cell-based; details: 3 isolates
# [39] = tested on: Klebsiella pneumoniae (non-CP-CRE); assay: MIC of carbapenems for isolates; assay type: cell-based; details: 22 isolates
# [40] = tested on: Klebsiella pneumoniae (OXA); assay: MIC of carbapenems for isolates; assay type: cell-based; details: 2 isolates
# [41] = tested on: Escherichia coli (non-CP-CRE); assay: MIC of carbapenems for isolates; assay type: cell-based; details: 8 isolates
# [42] = Klebsiella pneumoniae, 1 isolate
# [43] = Citrobacter freundii, 1 isolate
compound,measurement,setting,value
"C[C@@H](O)[C@H]1C(=O)N2C(C(=O)O)=C(S[C@@H]3CN[C@H](C(=O)Nc4cccc(C(=O)O)c4)C3)[C@H](C)[C@H]12 [ERT, ertapenem]",MIC,[1],> 16 µg/mL
same,MIC,[2],2 µg/mL
same,MIC,[3],> 16 µg/mL
same,MIC,Klebsiella oxytoca (KPC),> 16 µg/mL
same,MIC,[4],1 µg/mL
same,MIC,[5],1 µg/mL
same,MIC,Escherichia coli (NDM),> 16 µg/mL
same,MIC,[6],16 µg/mL
same,MIC,[7],2 to 16 µg/mL
same,MIC,[8],≤ 0.125 µg/mL
same,MIC,[9],> 16 µg/mL
same,MIC,[10],2 µg/mL
same,MIC,[11],> 16 µg/mL
same,MIC,[12],> 16 µg/mL
same,MIC,[13],> 16 µg/mL
same,MIC,[14],≤ 0.125 µg/mL
same,MIC,Klebsiella oxytoca (VIM),0.5 µg/mL
same,MIC,[15],> 16 µg/mL
same,MIC,Escherichia coli (KPC),8 µg/mL
same,MIC,Escherichia coli (IMP),4 µg/mL
C[C@@H](O)[C@H]1C(=O)N2C(C(=O)O)=C(COc3ccc(COc4ccc5ccc(=O)oc5c4)cc3)[C@H](C)[C@H]12 [OMCL01203],Fluore result,GES [16],Pos
same,Fluore result,"VIM [17]; Citrobacter freundii, 4 isolates",Pos
same,Fluore result,"VIM [17]; Enterobacter cloacae, 1 isolate",Pos
same,Fluore result,"VIM [17]; Klebsiella oxytoca, 1 isolate",Pos
same,Fluore result,VIM [17]; [42],Pos
same,Fluore result,KPC/OXA [18],Pos
same,Fluore result,NDM [19]; [43],Pos
same,Fluore result,"NDM [19]; Enterobacter cloacae, 2 isolates",Pos
same,Fluore result,"NDM [19]; Escherichia coli, 4 isolates",Pos
same,Fluore result,NDM [19]; [42],Pos
same,Fluore result,"NDM [19]; Morganella morganii, 1 isolate",Pos
same,Fluore result,non-CP-CRE; [43],Neg
same,Fluore result,"non-CP-CRE; Enterobacter amnigenus, 4 isolates",Neg
same,Fluore result,"non-CP-CRE; Enterobacter cloacae, 10 isolates",Neg
same,Fluore result,"non-CP-CRE; Escherichia coli, 8 isolates",Neg
same,Fluore result,"non-CP-CRE; Klebsiella aerogenes, 3 isolates",Neg
same,Fluore result,"non-CP-CRE; Klebsiella pneumoniae, 22 isolates",Neg
same,Fluore result,"CTX-M (ESBL-producer); Escherichia coli, 29 isolates",Neg
same,Fluore result,"CTX-M (ESBL-producer); Klebsiella pneumoniae, 24 isolates",Neg
same,Fluore result,OXA [20]; [43],Pos
same,Fluore result,"OXA [20]; Klebsiella pneumoniae, 2 isolates",Pos
same,Fluore result,NDM/OXA [21],Pos
same,Fluore result,IMP [22],Pos
same,Fluore result,KPC [23]; [43],Pos
same,Fluore result,"KPC [23]; Escherichia coli, 3 isolates",Pos
same,Fluore result,"KPC [23]; Klebsiella aerogenes, 1 isolate",Pos
same,Fluore result,"KPC [23]; Klebsiella oxytoca, 1 isolate",Pos
same,Fluore result,"KPC [23]; Klebsiella pneumoniae, 30 isolates",Pos
same,Fluore result,"non-producer; Escherichia coli, 32 isolates",Neg
same,Fluore result,"non-producer; Klebsiella pneumoniae, 21 isolates",Neg
same,Fluore result,GES [24],Neg(1)
same,Fluore result,OXA [25]; isolates testing negative,Neg(2)
same,Fluore result,OXA [25]; isolates testing positive,Pos(1);
same,determination of negative bacteria,[26],negative
same,Pos. %,GES [27],100%
same,result(s) (isolates determined positive),GES [27],2
same,Pos. %,VIM [28],100%
same,result(s) (isolates determined positive),VIM [28],7
same,Pos. %,KPC/OXA [29],100%
same,result(s) (isolates determined positive),KPC/OXA [29],2
same,Pos. %,NDM [30],89%
same,result(s) (isolates determined positive),NDM [30],8
same,Pos. %,OXA [31],83%
same,result(s) (isolates determined positive),OXA [31],5
same,Pos. %,NDM/OXA [32],100%
same,result(s) (isolates determined positive),NDM/OXA [32],1
same,Pos. %,IMP [33],100%
same,result(s) (isolates determined positive),IMP [33],1
same,Pos. %,KPC [34],100%
same,result(s) (isolates determined positive),KPC [34],33
same,Pos. %,"Non-CP CRE; Non-CP CRE, 40 isolates",0%
same,result(s) (isolates determined positive),"Non-CP CRE; Non-CP CRE, 40 isolates",0
same,determination of non-CPE species,Non-CP CRE; all 40 non-CPE species,negative
same,Pos. %,[35],97%
same,result(s) (isolates determined positive),[35],59
"C[C@@H](O)[C@H]1C(=O)N2C(C(=O)O)=C(S[C@@H]3CN[C@H](C(=O)N(C)C)C3)[C@H](C)[C@H]12 [MEM, meropenem]",MIC,[1],> 16 µg/mL
same,MIC,[2],0.5 µg/mL
same,MIC,[3],> 16 µg/mL
same,MIC,Klebsiella oxytoca (KPC),> 16 µg/mL
same,MIC,[4],0.5 µg/mL
same,MIC,[36],2 to 8 µg/mL
same,MIC,[5],2 µg/mL
same,MIC,Escherichia coli (NDM),> 16 µg/mL
same,MIC,[6],4 µg/mL
same,MIC,[8],≤ 0.25 µg/mL
same,MIC,[9],8 µg/mL
same,MIC,[37],0.5 to 16 µg/mL
same,MIC,[10],4 µg/mL
same,MIC,[38],≤ 0.25 µg/mL
same,MIC,Escherichia coli (OXA),0.25 to 4 µg/mL
same,MIC,[39],0.5 to 8 µg/mL
same,MIC,[40],0.5 to 16 µg/mL
same,MIC,[11],> 16 µg/mL
same,MIC,[12],16 µg/mL
same,MIC,[13],> 16 µg/mL
same,MIC,[14],≤ 0.25 µg/mL
same,MIC,[41],0.25 to 8 µg/mL
same,MIC,Klebsiella oxytoca (VIM),1 µg/mL
same,MIC,[15],16 µg/mL
same,MIC,Escherichia coli (KPC),4 µg/mL
same,MIC,Escherichia coli (IMP),1 µg/mL

# Source: patent publication US20210277246A1, “PROBE FOR DETECTING CARBAPENEM-RESISTANT BACTERIA AND USE THEREOF” (priority 2018, published 2021)
